# Source: ChEMBL document CHEMBL1141196, “Grafting aminocyclopentane carboxylic acids onto the RGD tripeptide sequence generates low nanomolar alphaVbeta3/alphaVbeta5 integrin dual binders” (J Med Chem, 2005)
# Experiments:
# Integrin alpha-V/beta-3 = Integrin alpha-V/beta-3 (Homo sapiens, UniProt P05106+P06756); test: Displacement of [125I]-echistatin from alphavbeta3 integrin receptor; format: protein-complex assay
# Integrin alpha-V/beta-5 = Integrin alpha-V/beta-5 (Homo sapiens, UniProt P06756+P18084); test: Displacement of [125I]-echistatin from alpha-v-beta-5 integrin receptor; format: protein-complex assay
# Sequence of Integrin alpha-V/beta-5 (P06756 31-889 limits assumed): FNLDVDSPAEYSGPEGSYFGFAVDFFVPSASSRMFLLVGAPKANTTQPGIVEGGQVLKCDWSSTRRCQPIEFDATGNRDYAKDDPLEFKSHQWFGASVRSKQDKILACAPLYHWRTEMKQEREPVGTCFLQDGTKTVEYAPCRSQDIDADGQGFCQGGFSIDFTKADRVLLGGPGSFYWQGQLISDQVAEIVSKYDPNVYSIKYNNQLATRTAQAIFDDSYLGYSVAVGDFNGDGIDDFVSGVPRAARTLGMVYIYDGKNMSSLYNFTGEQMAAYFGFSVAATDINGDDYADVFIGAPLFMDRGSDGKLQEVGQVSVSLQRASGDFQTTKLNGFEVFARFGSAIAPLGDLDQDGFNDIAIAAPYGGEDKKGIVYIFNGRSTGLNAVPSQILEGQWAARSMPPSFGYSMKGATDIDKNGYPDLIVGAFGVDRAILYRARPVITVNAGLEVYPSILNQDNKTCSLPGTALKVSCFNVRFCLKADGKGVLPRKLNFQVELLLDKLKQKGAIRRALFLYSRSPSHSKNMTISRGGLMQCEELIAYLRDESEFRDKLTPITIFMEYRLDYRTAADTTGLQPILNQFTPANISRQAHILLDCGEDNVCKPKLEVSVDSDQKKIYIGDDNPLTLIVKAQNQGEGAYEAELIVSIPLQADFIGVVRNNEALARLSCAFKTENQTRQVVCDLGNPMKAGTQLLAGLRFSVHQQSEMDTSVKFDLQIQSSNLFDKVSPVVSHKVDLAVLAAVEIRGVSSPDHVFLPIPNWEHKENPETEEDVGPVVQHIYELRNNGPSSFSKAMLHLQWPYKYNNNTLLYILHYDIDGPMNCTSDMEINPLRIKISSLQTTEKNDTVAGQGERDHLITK
# Sequence of Integrin alpha-V/beta-5 (P06756 891-1048 limits assumed): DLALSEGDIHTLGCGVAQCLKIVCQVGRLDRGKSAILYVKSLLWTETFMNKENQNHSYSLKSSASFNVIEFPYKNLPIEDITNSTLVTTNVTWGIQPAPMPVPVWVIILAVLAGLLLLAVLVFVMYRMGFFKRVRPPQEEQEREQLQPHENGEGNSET
# Sequence of Integrin alpha-V/beta-5 (P18084 24-799 limits assumed): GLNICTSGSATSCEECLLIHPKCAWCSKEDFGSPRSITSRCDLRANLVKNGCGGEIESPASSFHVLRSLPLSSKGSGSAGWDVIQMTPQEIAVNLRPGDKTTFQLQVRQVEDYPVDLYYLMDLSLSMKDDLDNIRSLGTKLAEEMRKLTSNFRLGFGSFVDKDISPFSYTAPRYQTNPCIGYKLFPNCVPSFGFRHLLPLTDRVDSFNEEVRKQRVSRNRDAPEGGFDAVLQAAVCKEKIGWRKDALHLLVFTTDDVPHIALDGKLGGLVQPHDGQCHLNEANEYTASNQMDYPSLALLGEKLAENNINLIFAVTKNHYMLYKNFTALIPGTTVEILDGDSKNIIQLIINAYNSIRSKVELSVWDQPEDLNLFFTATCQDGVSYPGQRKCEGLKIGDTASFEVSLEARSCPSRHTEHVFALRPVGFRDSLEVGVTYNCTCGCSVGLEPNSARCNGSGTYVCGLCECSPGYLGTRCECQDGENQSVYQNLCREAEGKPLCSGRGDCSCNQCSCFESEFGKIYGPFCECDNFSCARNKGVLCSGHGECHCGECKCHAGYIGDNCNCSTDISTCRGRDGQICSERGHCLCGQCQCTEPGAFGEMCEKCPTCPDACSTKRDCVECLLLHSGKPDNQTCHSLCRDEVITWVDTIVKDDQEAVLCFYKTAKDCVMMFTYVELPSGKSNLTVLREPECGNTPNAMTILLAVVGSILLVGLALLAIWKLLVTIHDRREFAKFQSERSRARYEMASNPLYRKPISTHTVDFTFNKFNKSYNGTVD
# Sequence of Integrin alpha-V/beta-3 (P05106 27-788 limits assumed): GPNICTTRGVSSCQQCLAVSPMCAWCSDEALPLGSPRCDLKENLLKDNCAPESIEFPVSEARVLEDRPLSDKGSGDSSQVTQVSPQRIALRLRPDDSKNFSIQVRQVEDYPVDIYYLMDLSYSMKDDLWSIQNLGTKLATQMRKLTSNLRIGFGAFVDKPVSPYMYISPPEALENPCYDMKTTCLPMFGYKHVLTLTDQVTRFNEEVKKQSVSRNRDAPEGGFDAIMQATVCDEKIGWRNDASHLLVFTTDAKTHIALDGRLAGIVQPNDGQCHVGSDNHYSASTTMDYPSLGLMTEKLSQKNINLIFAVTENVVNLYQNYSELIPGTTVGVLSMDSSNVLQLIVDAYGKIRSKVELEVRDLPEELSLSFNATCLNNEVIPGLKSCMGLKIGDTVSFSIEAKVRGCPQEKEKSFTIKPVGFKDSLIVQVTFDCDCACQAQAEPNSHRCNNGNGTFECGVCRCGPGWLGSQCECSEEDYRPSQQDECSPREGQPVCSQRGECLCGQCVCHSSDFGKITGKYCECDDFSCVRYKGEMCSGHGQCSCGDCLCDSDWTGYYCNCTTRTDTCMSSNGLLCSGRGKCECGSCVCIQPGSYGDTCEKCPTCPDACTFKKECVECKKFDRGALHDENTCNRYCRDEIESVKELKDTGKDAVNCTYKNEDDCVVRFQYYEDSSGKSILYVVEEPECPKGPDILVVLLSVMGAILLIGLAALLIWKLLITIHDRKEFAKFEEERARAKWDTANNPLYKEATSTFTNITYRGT
# Sequence of Integrin alpha-V/beta-3 (P06756 31-889 limits assumed): as the sequence (P06756 31-889 limits assumed) above
# Sequence of Integrin alpha-V/beta-3 (P06756 891-1048 limits assumed): as the sequence (P06756 891-1048 limits assumed) above
SMILES,IC50 (Integrin alpha-V/beta-3) [nM],IC50 (Integrin alpha-V/beta-5) [nM]
N=C(N)NCCC[C@@H]1NC(=O)[C@H]2C[C@@H](NC(=O)[C@H](CC(=O)O)NC(=O)CNC1=O)[C@H](O)[C@@H]2O,713,1300
N=C(N)NCCC[C@@H]1NC(=O)[C@H]2CC[C@H](C2)NC(=O)[C@H](CC(=O)O)NC(=O)CNC1=O,4.6,3.43
N=C(N)NCCC[C@@H]1NC(=O)[C@H]2C[C@@H](NC(=O)[C@H](CC(=O)O)NC(=O)CNC1=O)[C@H](O)[C@H]2O,133,411
N=C(N)NCCC[C@@H]1NC(=O)[C@@H]2C[C@@H](O)[C@@H](C2)NC(=O)[C@H](CC(=O)O)NC(=O)CNC1=O,7.2,13.1
N=C(N)NCCC[C@@H]1NC(=O)[C@@H]2CC[C@H](C2)NC(=O)[C@H](CC(=O)O)NC(=O)CNC1=O,1.5,0.59
NC(N)=NCCC[C@@H]1NC(=O)[C@H]2CC[C@@H]3CCC[C@H](NC(=O)[C@H](CC(=O)O)NC(=O)CNC1=O)C(=O)N32,1.4,1.16
N=C(N)NCCC[C@@H]1NC(=O)[C@@H]2CC[C@@H](C2)NC(=O)[C@H](CC(=O)O)NC(=O)CNC1=O,7.7,6.56
N=C(N)NCCC[C@@H]1NC(=O)[C@H]2CC[C@@H](C2)NC(=O)[C@H](CC(=O)O)NC(=O)CNC1=O,9.93,26
N=C(N)NCCC[C@@H]1NC(=O)[C@@H]2C[C@H](NC(=O)[C@H](CC(=O)O)NC(=O)CNC1=O)[C@@H](O)[C@@H]2O,44.7,125
N=C(N)NCCC[C@@H]1NC(=O)[C@@H]2C[C@H](NC(=O)[C@H](CC(=O)O)NC(=O)CNC1=O)[C@@H](O)[C@H]2O,51.4,166
N=C(N)NCCC[C@@H]1NC(=O)[C@H]2C[C@H](NC(=O)[C@H](CC(=O)O)NC(=O)CNC1=O)[C@@H](O)C2,35.6,29.6
N=C(N)NCCC[C@@H]1NC(=O)[C@@H]2C[C@H](NC(=O)[C@H](CC(=O)O)NC(=O)CNC1=O)[C@@H](O)C2,5.6,4.56
